# Key:
# [1] = tested on: Adult flies (Stomoxys calcitrans); assay: Test for insecticidal activity: topical application to adult flies, mortality after 24 hours; format: in vivo; settings: 1 μl acetone solution applied to thorax of fly; mortality assessed 24 hours after dosing
# Procedure: Test for Insecticidal Activity Adult flies (Stomoxys calcitrans) are collected and anaesthetized using CO2- 1 μl of an acetone solution containing the test substance is applied directly to the thorax of the fly. The flies are then placed carefully into a 50 ml tube covered with damp gauze to recover from the CO2. Negative controls have 1 μl of acetone dispensed onto them. Mortality is assessed 24 hours after dosing. The table below illustrates the in vivo activity of a selection of the substances of the invention against such flies. Dosages required to produce 100% mortality are expressed in μg/fly.
# [2] = tested on: Boophilus microplus larvae; assay: Test for acaricidal activity: treated filter paper envelope, larval mortality; format: in vivo; settings: Rhipicephalus microplus, larvae exposed 48 hours at 25° C.; for mortality at 0.5 µg/cm2: dosage 0.5 μg/cm^2 on filter paper
# Procedure: Test for Acaricidal Activity
# A dose of 10 μg/cm^2 is created by evenly pipetting 0.5 ml of a 1 mg/ml solution of the test compound in a suitable solvent such as acetone or ethanol onto a Whatman No. 1 (Trade Mark) filter paper cut to a size of 8×6.25 cm. When dry, the paper is folded in half, sealed on two sides using a crimping device and placed in a Kilner jar containing a cotton wool pad dampened with water. The jar is then sealed and placed at 25° C. for 24 hours. Next, approximately 50 Boophilus microplus larvae are introduced into the treated paper envelope which is then crimped along the third side to effect a complete seal. The paper envelope is returned to the Kilner jar, which is sealed and placed at 25° C. for a further 48 hours. The papers are then removed and mortality assessed. Negative controls are provided by treating an appropriately cut filter paper with 0.5 ml of solvent only and following the same procedure. Activity at other doses is obtained by varying the concentration of the test solution. The table below illustrates the in vivo activity of a selection of the compounds of the invention against Boophilus microplus larvae. Dosages are expressed in μg/cm^2.
smiles,measurement,setting,value
"FC(F)(F)c1cc(Cl)c(-n2cc(C3CC3(Br)Br)nn2)c(Cl)c1 (centres unmarked) [Example 1, 4-(2,2-Dibromocyclopropyl)-1-(2,6-dichloro-4-trifluoromethylphenyl)-1,2,3-triazole]",Dosage required to produce 100% mortality,[1],0.005 μg/fly
same,mortality at 0.5 µg/cm2,[2],90%
"FC(F)(F)c1cc(Cl)c(-n2cc(C3CC3(Cl)Cl)nn2)c(Cl)c1 (centres unmarked) [Example 2, 4-(2,2-Dichlorocyclopropyl)-1-(2,6-dichloro-4-trifluoromethylphenyl)-1,2,3-triazole]",Dosage required to produce 100% mortality,[1],0.01 μg/fly
same,mortality at 1 µg/cm2,[2]; dosage 1 μg/cm^2 on filter paper,100%
"N#Cc1cn(-c2c(Cl)cc(C(F)(F)F)cc2Cl)cc1C1CC1(Br)Br (centres unmarked) [Example 3, 3-Cyano-4-(2,2-dibromocyclopropyl)-1-(2,6-dichloro-4-trifluoromethylphenyl)pyrrole]",Dosage required to produce 100% mortality,[1],0.005 μg/fly
same,mortality at 0.5 µg/cm2,[2],100%
"FC(F)(F)c1cc(Cl)c(-n2cc(C3CC3(Br)Br)c3ccccc32)c(Cl)c1 (centres unmarked) [Example 4, 3-(2,2-Dibromocyclopropyl)-1-(2,6-dichloro-4-trifluoromethylphenyl)indole]",Dosage required to produce 100% mortality,[1],0.05 μg/fly
"FC(F)(F)c1cc(Cl)c(-n2cnc(C3CC3(Br)Br)n2)c(Cl)c1 (centres unmarked) [Example 6, 3-(2,2-Dibromocyclopropyl)-1-(2,6-dichloro-4-trifluoromethylphenyl)-1,2,4-triazole]",Dosage required to produce 100% mortality,[1],0.01 μg/fly

# — patent publication US6525079B2, “Anti-parasitic heterocycle compounds, agents, formulations, and methods of use thereof” (Pfizer Inc., priority 1998, dated 2003)
